pIC50: −log10 of the molar value.
System: 388556-164-R-J1-PDC complex spheroid viability
Test: Anticancer human tumor 388556-164-R-J1-PDC patient-derived colon adenocarcinoma cell line growth inhibition [RAS]
Conditions: for pIC50: curve of first compound; for viability, T/C: stronger effect = lower value; active means viability on the fitted dose curve at most 10% of control; inactive means the rest
Outline: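 Tumour cells grown as complex spheroids with HUVEC endothelial cells and mesenchymal stem cells, treated with RAS pathway inhibitor combinations. Each agent spans half-log steps from near clinical Cmax, or 10 microM where Cmax is unknown.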

[1] = second compound 0.000949 µM, first compound 0.0316 µM
[2] = second compound 0.000949 µM, first compound 0.1 µM
[3] = second compound 0.000949 µM, first compound 0.316 µM
[4] = second compound 0.000949 µM, first compound 1 µM
[5] = second compound 0.000949 µM, first compound 3.16 µM
[6] = second compound 0.000949 µM, first compound 10 µM
[7] = second compound 0.003 µM, first compound 0.0316 µM
[8] = second compound 0.003 µM, first compound 0.1 µM
[9] = second compound 0.003 µM, first compound 0.316 µM
[10] = second compound 0.003 µM, first compound 1 µM
[11] = second compound 0.003 µM, first compound 3.16 µM
[12] = second compound 0.003 µM, first compound 10 µM
[13] = second compound 0.00949 µM, first compound 0.0316 µM
[14] = second compound 0.00949 µM, first compound 0.1 µM
[15] = second compound 0.00949 µM, first compound 0.316 µM
[16] = second compound 0.00949 µM, first compound 1 µM
[17] = second compound 0.00949 µM, first compound 3.16 µM
[18] = second compound 0.00949 µM, first compound 10 µM
[19] = second compound 0.03 µM, first compound 0.0316 µM
[20] = second compound 0.03 µM, first compound 0.1 µM
[21] = second compound 0.03 µM, first compound 0.316 µM
[22] = second compound 0.03 µM, first compound 1 µM
[23] = second compound 0.03 µM, first compound 3.16 µM
[24] = second compound 0.03 µM, first compound 10 µM
[25] = second compound 0.0949 µM, first compound 0.0316 µM
[26] = second compound 0.0949 µM, first compound 0.1 µM
[27] = second compound 0.0949 µM, first compound 0.316 µM
[28] = second compound 0.0949 µM, first compound 1 µM
[29] = second compound 0.0949 µM, first compound 3.16 µM
[30] = second compound 0.0949 µM, first compound 10 µM
[31] = second compound 0.3 µM, first compound 0.0316 µM
[32] = second compound 0.3 µM, first compound 0.1 µM
[33] = second compound 0.3 µM, first compound 0.316 µM
[34] = second compound 0.3 µM, first compound 1 µM
[35] = second compound 0.3 µM, first compound 3.16 µM
[36] = second compound 0.3 µM, first compound 10 µM
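Further: spheroids exposed to compound for 7 days before readout.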
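Wherever viability, T/C is given: 100% = DMSO vehicle control luminescence.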

CC(=O)OC12COC1CC(O)C1(C)C(=O)C(O)C3=C(C)C(OC(=O)C(O)C(NC(=O)OC(C)(C)C)c4ccccc4)CC(O)(C(OC(=O)c4ccccc4)C21)C3(C)C (stereo not given) + CCn1c(-c2cccnc2C(C)OC)c2c3cc(ccc31)N1CCOC(CC(NC(=O)C(C(C)C)N(C)C(=O)C3(F)CCN(C(=O)C#CC(C)(C)N(C)C)CC3)C(=O)N3CCCC(N3)C(=O)OCC(C)(C)C2)C1
< 5.00: pIC50 (second compound 0.000949 µM) | pIC50 (second compound 0.003 µM) | pIC50 (second compound 0.00949 µM) | pIC50 (second compound 0.03 µM) | pIC50 (second compound 0.0949 µM) | pIC50 (second compound 0.3 µM)
inactive: viability, T/C [1] 86% | viability, T/C [2] 83.4% | viability, T/C [3] 70.5% | viability, T/C [4] 73.7% | viability, T/C [5] 80.7% | viability, T/C [6] 74.7% | viability, T/C [7] 92.2% | viability, T/C [8] 78.8% | viability, T/C [9] 79% | viability, T/C [10] 76% | viability, T/C [11] 75.1% | viability, T/C [12] 74.4% | viability, T/C [13] 86% | viability, T/C [14] 83.4% | viability, T/C [15] 76.6% | viability, T/C [16] 75% | viability, T/C [17] 79.4% | viability, T/C [18] 71% | viability, T/C [19] 95.5% | viability, T/C [20] 81.7% | viability, T/C [21] 70.7% | viability, T/C [22] 71.7% | viability, T/C [23] 79.1% | viability, T/C [24] 74.2% | viability, T/C [25] 80.7% | viability, T/C [26] 79.2% | viability, T/C [27] 81.8% | viability, T/C [28] 76.3% | viability, T/C [29] 78% | viability, T/C [30] 69.6% | viability, T/C [31] 79.7% | viability, T/C [32] 70.3% | viability, T/C [33] 71.3% | viability, T/C [34] 73.8% | viability, T/C [35] 71.4% | viability, T/C [36] 69%

CCC(CC)c1cc(NC2CCC(N)C2)n2nccc2n1 (stereo not given) + CCn1c(-c2cccnc2C(C)OC)c2c3cc(ccc31)N1CCOC(CC(NC(=O)C(C(C)C)N(C)C(=O)C3(F)CCN(C(=O)C#CC(C)(C)N(C)C)CC3)C(=O)N3CCCC(N3)C(=O)OCC(C)(C)C2)C1
5.29: pIC50 (second compound 0.00949 µM)
5.32: pIC50 (second compound 0.0949 µM)
5.35: pIC50 (second compound 0.003 µM)
5.39: pIC50 (second compound 0.03 µM)
5.53: pIC50 (second compound 0.3 µM)
inactive: viability, T/C [1] 101% | viability, T/C [2] 95.6% | viability, T/C [3] 104% | viability, T/C [4] 106% | viability, T/C [5] 60.2% | viability, T/C [6] 32.8% | viability, T/C [7] 113% | viability, T/C [8] 105% | viability, T/C [9] 100% | viability, T/C [10] 104% | viability, T/C [11] 57.6% | viability, T/C [12] 31.9% | viability, T/C [13] 112% | viability, T/C [14] 106% | viability, T/C [15] 102% | viability, T/C [16] 93.2% | viability, T/C [17] 64% | viability, T/C [18] 30.4% | viability, T/C [19] 105% | viability, T/C [20] 102% | viability, T/C [21] 107% | viability, T/C [22] 106% | viability, T/C [23] 54.3% | viability, T/C [24] 35.6% | viability, T/C [25] 110% | viability, T/C [26] 87.3% | viability, T/C [27] 100% | viability, T/C [28] 103% | viability, T/C [29] 58.3% | viability, T/C [30] 34.8% | viability, T/C [31] 101% | viability, T/C [32] 89.9% | viability, T/C [33] 92.6% | viability, T/C [34] 91.6% | viability, T/C [35] 47.2% | viability, T/C [36] 34.4%
5.31: pIC50 (second compound 0.000949 µM)

Cc1nc(N2CCC3(CC2)COC(C)C3N)c(CO)nc1Sc1ccnc(N)c1Cl (stereo not given) + CCn1c(-c2cccnc2C(C)OC)c2c3cc(ccc31)N1CCOC(CC(NC(=O)C(C(C)C)N(C)C(=O)C3(F)CCN(C(=O)C#CC(C)(C)N(C)C)CC3)C(=O)N3CCCC(N3)C(=O)OCC(C)(C)C2)C1
inactive: viability, T/C [1] 97.1% | viability, T/C [2] 95.6% | viability, T/C [3] 77.4% | viability, T/C [4] 55.2% | viability, T/C [5] 56% | viability, T/C [6] 47.1% | viability, T/C [7] 108% | viability, T/C [8] 93.9% | viability, T/C [9] 76.7% | viability, T/C [10] 66.4% | viability, T/C [11] 56% | viability, T/C [12] 44.6% | viability, T/C [13] 91.5% | viability, T/C [14] 99.9% | viability, T/C [15] 82.9% | viability, T/C [16] 61.7% | viability, T/C [17] 57.3% | viability, T/C [18] 43.7% | viability, T/C [19] 105% | viability, T/C [20] 98.7% | viability, T/C [21] 75.6% | viability, T/C [22] 63.4% | viability, T/C [23] 56.4% | viability, T/C [24] 45.1% | viability, T/C [25] 90.1% | viability, T/C [26] 95% | viability, T/C [27] 75% | viability, T/C [28] 62.8% | viability, T/C [29] 56% | viability, T/C [30] 40.5% | viability, T/C [31] 92.5% | viability, T/C [32] 86.7% | viability, T/C [33] 65.2% | viability, T/C [34] 55.6% | viability, T/C [35] 52.4% | viability, T/C [36] 40.1%
5.24: pIC50 (second compound 0.003 µM) | pIC50 (second compound 0.03 µM)
5.32: pIC50 (second compound 0.00949 µM)
< 5.00: pIC50 (second compound 0.000949 µM)
5.63: pIC50 (second compound 0.3 µM)
5.40: pIC50 (second compound 0.0949 µM)

NC1c2ccccc2OC12CCN(c1cnc3c(N4CCCc5ncccc54)n[nH]c3n1)CC2 (stereo not given) + CCn1c(-c2cccnc2C(C)OC)c2c3cc(ccc31)N1CCOC(CC(NC(=O)C(C(C)C)N(C)C(=O)C3(F)CCN(C(=O)C#CC(C)(C)N(C)C)CC3)C(=O)N3CCCC(N3)C(=O)OCC(C)(C)C2)C1
6.89: pIC50 (second compound 0.03 µM)
6.72: pIC50 (second compound 0.000949 µM)
7.00: pIC50 (second compound 0.3 µM)
inactive: viability, T/C [1] 63.8% | viability, T/C [2] 54.9% | viability, T/C [3] 46% | viability, T/C [4] 40.4% | viability, T/C [5] 44% | viability, T/C [6] 35.3% | viability, T/C [7] 70.6% | viability, T/C [8] 56.3% | viability, T/C [9] 49.1% | viability, T/C [10] 37.1% | viability, T/C [11] 36.2% | viability, T/C [12] 33% | viability, T/C [13] 77.8% | viability, T/C [14] 57.9% | viability, T/C [15] 47.1% | viability, T/C [16] 41.5% | viability, T/C [17] 42% | viability, T/C [18] 35.9% | viability, T/C [19] 73.1% | viability, T/C [20] 50.4% | viability, T/C [21] 44.6% | viability, T/C [22] 38.5% | viability, T/C [23] 37.2% | viability, T/C [24] 35.4% | viability, T/C [25] 66.8% | viability, T/C [26] 56.3% | viability, T/C [27] 43.5% | viability, T/C [28] 38.1% | viability, T/C [29] 36.4% | viability, T/C [30] 31.8% | viability, T/C [31] 59.7% | viability, T/C [32] 49.6% | viability, T/C [33] 42.8% | viability, T/C [34] 35.1% | viability, T/C [35] 30.6% | viability, T/C [36] 27.6%
6.66: pIC50 (second compound 0.003 µM)
6.74: pIC50 (second compound 0.0949 µM)
6.62: pIC50 (second compound 0.00949 µM)

Nc1ccn(C2OC(CO)C(O)C2(F)F)c(=O)n1 (stereo not given) + CCn1c(-c2cccnc2C(C)OC)c2c3cc(ccc31)N1CCOC(CC(NC(=O)C(C(C)C)N(C)C(=O)C3(F)CCN(C(=O)C#CC(C)(C)N(C)C)CC3)C(=O)N3CCCC(N3)C(=O)OCC(C)(C)C2)C1
< 6.00: pIC50 (second compound 0.000949 µM) | pIC50 (second compound 0.003 µM) | pIC50 (second compound 0.00949 µM) | pIC50 (second compound 0.03 µM) | pIC50 (second compound 0.0949 µM) | pIC50 (second compound 0.3 µM)
inactive: viability, T/C (second compound 0.000949 µM, first compound 0.00316 µM) 96% | viability, T/C (second compound 0.000949 µM, first compound 0.01 µM) 85.5% | viability, T/C [1] 77.4% | viability, T/C [2] 71.8% | viability, T/C [3] 71.6% | viability, T/C [4] 64.1% | viability, T/C (second compound 0.003 µM, first compound 0.00316 µM) 102% | viability, T/C (second compound 0.003 µM, first compound 0.01 µM) 90.5% | viability, T/C [7] 76.8% | viability, T/C [8] 72.1% | viability, T/C [9] 72.4% | viability, T/C [10] 65.8% | viability, T/C (second compound 0.00949 µM, first compound 0.00316 µM) 99.1% | viability, T/C (second compound 0.00949 µM, first compound 0.01 µM) 91.8% | viability, T/C [13] 78.6% | viability, T/C [14] 69.4% | viability, T/C [15] 70% | viability, T/C [16] 64.5% | viability, T/C (second compound 0.03 µM, first compound 0.00316 µM) 98.4% | viability, T/C (second compound 0.03 µM, first compound 0.01 µM) 92.7% | viability, T/C [19] 79% | viability, T/C [20] 67.5% | viability, T/C [21] 70.6% | viability, T/C [22] 61.7% | viability, T/C (second compound 0.0949 µM, first compound 0.00316 µM) 90.6% | viability, T/C (second compound 0.0949 µM, first compound 0.01 µM) 86.3% | viability, T/C [25] 74.7% | viability, T/C [26] 67.6% | viability, T/C [27] 68.1% | viability, T/C [28] 62.2% | viability, T/C (second compound 0.3 µM, first compound 0.00316 µM) 81.7% | viability, T/C (second compound 0.3 µM, first compound 0.01 µM) 78% | viability, T/C [31] 69.8% | viability, T/C [32] 68.4% | viability, T/C [33] 67.2% | viability, T/C [34] 59.5%

From PubChem BioAssay AID2060907 (Molecular Pharmacology Branch, DTP, NCI, 2025)
